# pEC50: −log10 of the molar value.
# What was measured:
# TRPM2 [1] = target: TRPM2 (Mus musculus, UniProt Q91YD4); test: whole-cell patch clamp with intracellular ADPR; type: cell-based
# TRPM2 [2] = target: TRPM2 (Rattus norvegicus, UniProt E9PTA2); test: whole-cell patch clamp with intracellular ADPR; type: cell-based
# TRPM2 (Rattus norvegicus, UniProt E9PTA2), sequence (E9PTA2 whole entry): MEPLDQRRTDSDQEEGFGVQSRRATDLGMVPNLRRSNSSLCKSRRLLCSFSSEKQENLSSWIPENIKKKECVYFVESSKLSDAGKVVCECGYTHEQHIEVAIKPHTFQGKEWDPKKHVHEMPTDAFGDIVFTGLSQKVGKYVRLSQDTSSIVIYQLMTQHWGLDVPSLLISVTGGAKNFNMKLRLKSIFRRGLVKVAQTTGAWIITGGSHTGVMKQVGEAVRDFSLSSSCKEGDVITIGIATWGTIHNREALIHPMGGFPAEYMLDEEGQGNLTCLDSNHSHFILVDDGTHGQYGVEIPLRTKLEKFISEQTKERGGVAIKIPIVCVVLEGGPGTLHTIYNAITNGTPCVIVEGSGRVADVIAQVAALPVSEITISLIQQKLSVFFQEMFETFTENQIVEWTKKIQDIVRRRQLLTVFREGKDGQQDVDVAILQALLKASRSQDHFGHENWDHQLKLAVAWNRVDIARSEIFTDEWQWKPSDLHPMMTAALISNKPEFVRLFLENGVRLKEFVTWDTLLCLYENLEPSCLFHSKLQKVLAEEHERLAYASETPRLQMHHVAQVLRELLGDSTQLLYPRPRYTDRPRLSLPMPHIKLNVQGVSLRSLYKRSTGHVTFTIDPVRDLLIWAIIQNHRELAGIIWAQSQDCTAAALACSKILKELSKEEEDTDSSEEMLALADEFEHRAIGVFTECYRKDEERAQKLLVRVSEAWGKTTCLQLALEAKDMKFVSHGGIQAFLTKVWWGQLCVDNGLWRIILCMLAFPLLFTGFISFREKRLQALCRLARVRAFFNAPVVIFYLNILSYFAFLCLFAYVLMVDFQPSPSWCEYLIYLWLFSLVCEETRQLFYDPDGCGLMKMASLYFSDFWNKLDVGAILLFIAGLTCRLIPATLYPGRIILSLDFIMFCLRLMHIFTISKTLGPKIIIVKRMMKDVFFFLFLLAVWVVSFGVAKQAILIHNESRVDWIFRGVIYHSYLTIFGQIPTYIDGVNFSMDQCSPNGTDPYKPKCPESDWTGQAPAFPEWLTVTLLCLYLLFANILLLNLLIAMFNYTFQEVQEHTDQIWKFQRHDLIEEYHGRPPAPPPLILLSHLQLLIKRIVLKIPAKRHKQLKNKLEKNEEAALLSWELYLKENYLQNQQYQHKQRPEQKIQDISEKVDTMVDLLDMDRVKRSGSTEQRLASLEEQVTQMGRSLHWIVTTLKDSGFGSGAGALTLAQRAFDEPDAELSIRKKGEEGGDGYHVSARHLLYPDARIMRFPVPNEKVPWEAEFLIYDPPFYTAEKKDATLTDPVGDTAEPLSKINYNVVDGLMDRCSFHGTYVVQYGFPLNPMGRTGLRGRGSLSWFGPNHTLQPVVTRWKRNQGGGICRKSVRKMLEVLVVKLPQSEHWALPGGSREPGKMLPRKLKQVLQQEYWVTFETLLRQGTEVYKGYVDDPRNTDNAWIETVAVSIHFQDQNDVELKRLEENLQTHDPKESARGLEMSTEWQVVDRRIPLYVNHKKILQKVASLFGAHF
# TRPM2 (Mus musculus, UniProt Q91YD4), sequence (Q91YD4 whole entry): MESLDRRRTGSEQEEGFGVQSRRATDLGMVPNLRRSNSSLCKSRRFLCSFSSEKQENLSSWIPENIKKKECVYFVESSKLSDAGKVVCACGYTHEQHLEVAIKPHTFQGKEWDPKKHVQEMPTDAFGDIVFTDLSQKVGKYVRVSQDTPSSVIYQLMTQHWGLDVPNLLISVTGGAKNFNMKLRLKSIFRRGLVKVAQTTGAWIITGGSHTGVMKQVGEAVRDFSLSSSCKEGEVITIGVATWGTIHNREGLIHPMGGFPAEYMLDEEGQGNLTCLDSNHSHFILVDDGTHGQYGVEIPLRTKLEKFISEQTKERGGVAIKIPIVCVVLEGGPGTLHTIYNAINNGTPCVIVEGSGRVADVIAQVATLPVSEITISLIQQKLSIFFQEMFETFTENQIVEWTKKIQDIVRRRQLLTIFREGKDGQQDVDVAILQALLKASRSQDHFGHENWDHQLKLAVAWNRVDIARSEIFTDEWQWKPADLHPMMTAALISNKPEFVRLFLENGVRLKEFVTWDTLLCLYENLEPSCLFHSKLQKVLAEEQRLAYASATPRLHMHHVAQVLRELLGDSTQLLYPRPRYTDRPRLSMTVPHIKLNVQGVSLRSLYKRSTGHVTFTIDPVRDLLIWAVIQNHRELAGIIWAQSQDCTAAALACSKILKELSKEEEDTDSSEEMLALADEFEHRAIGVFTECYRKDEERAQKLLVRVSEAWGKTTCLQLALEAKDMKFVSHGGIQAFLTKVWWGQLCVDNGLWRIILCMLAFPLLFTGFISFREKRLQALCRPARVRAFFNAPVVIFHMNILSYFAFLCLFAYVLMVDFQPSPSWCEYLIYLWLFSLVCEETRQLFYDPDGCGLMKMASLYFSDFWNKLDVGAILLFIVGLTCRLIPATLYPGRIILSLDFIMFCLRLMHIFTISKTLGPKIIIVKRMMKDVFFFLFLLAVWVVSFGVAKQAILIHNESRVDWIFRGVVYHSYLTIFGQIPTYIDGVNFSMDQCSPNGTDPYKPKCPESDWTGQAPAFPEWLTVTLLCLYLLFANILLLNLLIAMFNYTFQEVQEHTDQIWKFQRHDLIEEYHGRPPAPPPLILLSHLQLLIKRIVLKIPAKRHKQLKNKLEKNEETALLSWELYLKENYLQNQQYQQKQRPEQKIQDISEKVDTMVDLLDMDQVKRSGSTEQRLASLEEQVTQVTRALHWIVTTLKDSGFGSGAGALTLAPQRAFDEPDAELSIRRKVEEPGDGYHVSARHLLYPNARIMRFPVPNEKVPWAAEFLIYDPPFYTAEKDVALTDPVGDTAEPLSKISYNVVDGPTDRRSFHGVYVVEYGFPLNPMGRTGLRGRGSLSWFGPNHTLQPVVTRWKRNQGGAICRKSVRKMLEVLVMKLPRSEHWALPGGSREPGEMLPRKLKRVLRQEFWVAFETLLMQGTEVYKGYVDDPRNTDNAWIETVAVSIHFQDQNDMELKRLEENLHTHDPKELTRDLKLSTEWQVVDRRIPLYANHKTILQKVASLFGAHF
structure (smiles),measurement,setting,value
Nc1ncnc2c1ncn2[C@@H]1O[C@H](COP(=O)(O)OP(=O)(O)OC[C@H]2OC(O)[C@H](O)[C@@H]2O)[C@@H](O)[C@H]1O (some centres unmarked) [ADPR],pEC50,TRPM2 [1],3.44
same,pEC50,TRPM2 [2],3.96

# From publication PMC2779714 (Science signaling, 2009)
